# Data taken from US4231928A, “Antibacterial agents” (priority 1979, dated 1980).
# Where two headings read alike, the source gives them in different places.
# Experiments:
# Type in all cases: cell-based
# S. aureus = test: Serial twofold agar dilution (Mueller-Hinton agar), S. aureus; conditions: Staphylococcus aureus
# Experimental: (§1) The Minimum Inhibitory Concentrations (MIC) for sodium 6-[D-(-)-α-phenyl-α-(7-hydroxy-4-oxo-4H-pyrimido[1,2-b]pyridazin-3-ylcarboxamido)acetamido]penicillanate (BB-P598) and sulbenicillin were determined by the serial twofold agar dilution method using Steers' apparatus on Mueller-Hinton agar plates against 31 test organisms for the primary screening (Table 1) and also against 61 strains of Pseudomonas aeruginosa for the secondary evaluation (Table 2).
# (§2) Minimum Inhibitory Concentrations (MIC) for sodium 6-[D-(-)-α-phenyl-α-(7-hydroxy-4-oxo-4H-pyrimido[1,2-b]pyridazin-3-ylcarboxamido)acetamido]pencillanate (BB-P598), sodium 6-[D-(-)-α-(4-hydroxyphenyl)-α-(7-hydroxy-4-oxo-4H-pyrimido[1,2-b]pyridazin-3-ylcarboxamido)acetamido]-penicillanate (BB-P642) and carbenicillin were determined by the serial twofold agar dilution method using Steers' apparatus on Mueller-Hinton agar plates against 31 tests organisms (Table 8) and also against 61 strains of Pseudomonas aeruginosa (Table 9). In terms of mean % relative activity compared with carbenicillin, compounds BB-B598 and BB-P642 were 856% and 1319% as active as carbenicillin against the 61 Pseudomonas strains of Table 9.
# E. coli = test: Serial twofold agar dilution (Mueller-Hinton agar), E. coli; conditions: Escherichia coli
# Experimental: as §1, §2
# K. pneumoniae = test: Serial twofold agar dilution (Mueller-Hinton agar), K. pneumoniae; conditions: Klebsiella pneumoniae, K. pneumoniae A9977, Table 1, read-out: MIC
# Experimental: as §1, §2
# Klebsiella sp. = test: Serial twofold agar dilution (Mueller-Hinton agar), Klebsiella sp.
# Experimental: as §1, §2
# E. cloacae = test: Serial twofold agar dilution (Mueller-Hinton agar), E. cloacae; conditions: Enterobacter cloacae
# Experimental: as §1, §2
# P. mirabilis = test: Serial twofold agar dilution (Mueller-Hinton agar), P. mirabilis; conditions: Proteus mirabilis, P. mirabilis A9900; Mueller-Hinton agar; Table 1; read-out: MIC
# Experimental: as §1, §2
# P. vulgaris = test: Serial twofold agar dilution (Mueller-Hinton agar), P. vulgaris; conditions: Proteus vulgaris, P. vulgaris A9539, Table 1, read-out: MIC
# Experimental: as §1, §2
# P. morganii = test: Serial twofold agar dilution (Mueller-Hinton agar), P. morganii; conditions: Morganella morganii, P. morganii A9553, Table 1, read-out: MIC
# Experimental: as §1, §2
# S. enteritidis = test: Serial twofold agar dilution (Mueller-Hinton agar), S. enteritidis; conditions: Salmonella enterica, S. enteritidis A9531, Table 1, read-out: MIC
# Experimental: as §1, §2
# S. marcescens = test: Serial twofold agar dilution (Mueller-Hinton agar), S. marcescens; conditions: Serratia marcescens, S. marcescens A20019, Table 1
# Experimental: as §1, §2
# Pseudomonas aeruginosa = test: Serial twofold agar dilution (Mueller-Hinton agar), P. aeruginosa; conditions: Pseudomonas aeruginosa
# Experimental: as §1, §2
# Pseudomonas sp. = test: Serial twofold agar dilution (Mueller-Hinton agar), Pseudomonas sp.; conditions: Pseudomonas sp. A20358, Table 1, read-out: MIC
# Experimental: as §1, §2
structure (smiles),measurement,setting,value
"CC1(C)S[C@@H]2[C@H](NC(=O)C(c3ccccc3)S(=O)(=O)O)C(=O)N2[C@H]1C(=O)O (stereo partly shown) [Sulbenicillin, reference compound]",MIC,"S. aureus; S. aureus BX-1633 A15097, Table 1, read-out: MIC",12.5 mg/L
same,MIC,"S. aureus; S. aureus BX-1633 A20701, Table 1, read-out: MIC",50 mg/L
same,MIC,"S. aureus; S. aureus Smith A9537, Table 1, read-out: MIC",1.6 mg/L
same,MIC,"E. coli; E. coli Juhl A9435, Table 1",12.5 mg/L
same,MIC,"E. coli; E. coli Juhl A9844, Table 1, read-out: MIC",0.8 mg/L
same,MIC,"E. coli; E. coli Juhl A15119, Table 1, read-out: MIC",3.1 mg/L
same,MIC,"E. coli; E. coli Juhl A20366, Table 1, read-out: MIC",> 100 mg/L
same,MIC,"E. coli; E. coli Juhl A20520, Table 1, read-out: MIC",6.3 mg/L
same,MIC,"E. coli; E. coli Juhl A20664, Table 1, read-out: MIC",3.1 mg/L
same,MIC,"E. coli; E. coli Juhl A20732, Table 1, read-out: MIC",> 100 mg/L
same,MIC,"E. coli; E. coli Juhl A20898, Table 1, read-out: MIC",> 100 mg/L
same,MIC,"E. coli; E. coli NIHJ, Table 1, read-out: MIC",0.8 mg/L
same,MIC,K. pneumoniae,3.1 mg/L
same,MIC,Klebsiella sp.,12.5 mg/L
same,MIC,"E. cloacae; E. cloacae A9656, Table 1",6.3 mg/L
same,MIC,"E. cloacae; E. cloacae A9657, Table 1",100 mg/L
same,MIC,"E. cloacae; E. cloacae A9659, Table 1",12.5 mg/L
same,MIC,P. mirabilis,0.8 mg/L
same,MIC,P. vulgaris,1.6 mg/L
same,MIC,P. morganii,> 100 mg/L
same,MIC,S. enteritidis,1.6 mg/L
same,MIC,S. marcescens,6.3 mg/L
same,MIC,"Pseudomonas aeruginosa; 61 strains of P. aeruginosa, Table 2, read-out: Geometric mean of MIC",31.4 mg/L
same,MIC,"Pseudomonas aeruginosa; GN315, Pa-27 GN315 A21294, Mueller-Hinton agar, Table 2, read-out: MIC",50 mg/L
same,MIC,"Pseudomonas aeruginosa; GN4925, Pa-45 GN4925, Mueller-Hinton agar, Table 2, read-out: MIC",50 mg/L
same,MIC,"Pseudomonas aeruginosa; P. aeruginosa A9843, Mueller-Hinton agar, Table 1, read-out: MIC",25 mg/L
same,MIC,"Pseudomonas aeruginosa; P. aeruginosa A9930, Mueller-Hinton agar, Table 1, read-out: MIC",12.5 mg/L
same,MIC,"Pseudomonas aeruginosa; P. aeruginosa A15150, Mueller-Hinton agar, Table 1, read-out: MIC",12.5 mg/L
same,MIC,"Pseudomonas aeruginosa; P. aeruginosa A20229, Mueller-Hinton agar, Table 1, read-out: MIC",12.5 mg/L
same,MIC,"Pseudomonas aeruginosa; P. aeruginosa A20717, Mueller-Hinton agar, Table 1, read-out: MIC",100 mg/L
same,MIC,"Pseudomonas aeruginosa; Pa-2 VA A9923, Mueller-Hinton agar, Table 2, read-out: MIC",12.5 mg/L
same,MIC,"Pseudomonas aeruginosa; Pa-3 1449VA A9930, Mueller-Hinton agar, Table 2, read-out: MIC",6.3 mg/L
same,MIC,"Pseudomonas aeruginosa; Pa-4 H9 D113 A21295, Mueller-Hinton agar, Table 2, read-out: MIC",25 mg/L
same,MIC,"Pseudomonas aeruginosa; Pa-6 No. 5 A15194, Mueller-Hinton agar, Table 2, read-out: MIC",> 100 mg/L
same,MIC,"Pseudomonas aeruginosa; Pa-10 A20479, Mueller-Hinton agar, Table 2, read-out: MIC",> 100 mg/L
same,MIC,"Pseudomonas aeruginosa; Pa-12 A20653, Mueller-Hinton agar, Table 2, read-out: MIC",50 mg/L
same,MIC,"Pseudomonas aeruginosa; Pa-15 A20717, Mueller-Hinton agar, Table 2, read-out: MIC",100 mg/L
same,MIC,"Pseudomonas aeruginosa; Pa-16 #130 A20718, Mueller-Hinton agar, Table 2, read-out: MIC",6.3 mg/L
same,MIC,"Pseudomonas aeruginosa; Pa-17 H6 D114, Mueller-Hinton agar, Table 2, read-out: MIC",12.5 mg/L
same,MIC,"Pseudomonas aeruginosa; Pa-18 H8 D121, Mueller-Hinton agar, Table 2, read-out: MIC",12.5 mg/L
same,MIC,"Pseudomonas aeruginosa; Pa-19 A20229, Mueller-Hinton agar, Table 2, read-out: MIC",12.5 mg/L
same,MIC,"Pseudomonas aeruginosa; Pa-23 A20741, Mueller-Hinton agar, Table 2, read-out: MIC",50 mg/L
same,MIC,"Pseudomonas aeruginosa; Pa-24 A20896, Mueller-Hinton agar, Table 2, read-out: MIC",100 mg/L
same,MIC,"Pseudomonas aeruginosa; Pa-25 A20897, Mueller-Hinton agar, Table 2, read-out: MIC",12.5 mg/L
same,MIC,"Pseudomonas aeruginosa; Pa-26 Ps32, Mueller-Hinton agar, Table 2, read-out: MIC",12.5 mg/L
same,MIC,"Pseudomonas aeruginosa; Pa-28 CPH10527/72, Mueller-Hinton agar, Table 2, read-out: MIC",50 mg/L
same,MIC,"Pseudomonas aeruginosa; Pa-29 D122, Mueller-Hinton agar, Table 2, read-out: MIC",25 mg/L
same,MIC,"Pseudomonas aeruginosa; Pa-31 A20594, Mueller-Hinton agar, Table 2, read-out: MIC",12.5 mg/L
same,MIC,"Pseudomonas aeruginosa; Pa-33 A20598, Mueller-Hinton agar, Table 2, read-out: MIC",100 mg/L
same,MIC,"Pseudomonas aeruginosa; Pa-35, Mueller-Hinton agar, Table 2, read-out: MIC",100 mg/L
same,MIC,"Pseudomonas aeruginosa; Pa-36, Mueller-Hinton agar, Table 2, read-out: MIC",1.6 mg/L
same,MIC,"Pseudomonas aeruginosa; Pa-37 A20130, Mueller-Hinton agar, Table 2, read-out: MIC",50 mg/L
same,MIC,"Pseudomonas aeruginosa; Pa-38 A20349, Mueller-Hinton agar, Table 2, read-out: MIC",50 mg/L
same,MIC,"Pseudomonas aeruginosa; Pa-42 A21229, Mueller-Hinton agar, Table 2, read-out: MIC",> 100 mg/L
same,MIC,"Pseudomonas aeruginosa; Pa-43 A21233, Mueller-Hinton agar, Table 2, read-out: MIC",50 mg/L
same,MIC,"Pseudomonas aeruginosa; Pa-44 A21274, Mueller-Hinton agar, Table 2, read-out: MIC",50 mg/L
same,MIC,"Pseudomonas aeruginosa; Pa-54 A20128, Mueller-Hinton agar, Table 2, read-out: MIC",50 mg/L
same,MIC,"Pseudomonas aeruginosa; Pa-58 A20557, Mueller-Hinton agar, Table 2, read-out: MIC",50 mg/L
same,MIC,"Pseudomonas aeruginosa; Pa-59 A20574, Mueller-Hinton agar, Table 2, read-out: MIC",50 mg/L
same,MIC,"Pseudomonas aeruginosa; Pa-60 A20602, Mueller-Hinton agar, Table 2, read-out: MIC",12.5 mg/L
same,MIC,"Pseudomonas aeruginosa; Pa-61 A20726, Mueller-Hinton agar, Table 2, read-out: MIC",50 mg/L
same,MIC,"Pseudomonas aeruginosa; Pa-62 A21213, Mueller-Hinton agar, Table 2, read-out: MIC",> 100 mg/L
same,MIC,"Pseudomonas aeruginosa; Pa-67 A21509, Mueller-Hinton agar, Table 2, read-out: MIC",50 mg/L
same,MIC,"Pseudomonas aeruginosa; Pa-68 A21510, Mueller-Hinton agar, Table 2, read-out: MIC",50 mg/L
same,MIC,"Pseudomonas aeruginosa; Pa-69 A21587, Mueller-Hinton agar, Table 2, read-out: MIC",50 mg/L
same,MIC,"Pseudomonas aeruginosa; Pa-70 K-Ps102 (CR-102), Mueller-Hinton agar, Table 2, read-out: MIC",25 mg/L
same,MIC,Pseudomonas sp.,3.1 mg/L
